Reference: paper PMC7226860 (ACS Omega, 2020)
≈ marks a conversion by molar mass, not a printed value.

Legend:
S. aureus (ATCC: 6538) [1] = assay: MIC, twofold serial dilution; type: cell-based; conditions: Staphylococcus aureus, 24 h
S. mutans (ATCC: 25175) [2] = assay: Agar well diffusion, inhibition zone; type: cell-based, Streptococcus mutans; conditions: for zone of inhibition at 15000 µg/mL: Streptococcus mutans, read-out: diameter of the inhibition zone; for diameter of the inhibition zone: S. mutans (ATCC: 25175), Gram (+ve), agar well diffusion, 15 mg/mL, mean ± SD
S. mutans (ATCC: 25175) [3] = assay: MIC, twofold serial dilution; type: cell-based; conditions: Streptococcus mutans, 24 h
S. aureus (ATCC: 6538) [4] = assay: Agar well diffusion, inhibition zone; type: cell-based, Staphylococcus aureus; conditions: for zone of inhibition at 15000 µg/mL: Staphylococcus aureus, read-out: diameter of the inhibition zone; for diameter of the inhibition zone: S. aureus (ATCC: 6538), Gram (+ve), agar well diffusion, 15 mg/mL, mean ± SD
[5] = test system: C. albicans (ATCC: 10231); assay: Agar well diffusion, inhibition zone; type: cell-based, Candida albicans; conditions: for diameter of the inhibition zone: C. albicans (ATCC: 10231), fungi, 15 mg/mL, mean ± SD
[6] = test system: C. albicans (ATCC: 10231); assay: MIC, twofold serial dilution; type: cell-based, Candida albicans; conditions: C. albicans (ATCC: 10231); read after 24 h
[7] = test system: P. aeruginosa (ATCC: 27853); assay: Agar well diffusion, inhibition zone; type: cell-based, Pseudomonas aeruginosa; conditions: P. aeruginosa (ATCC: 27853), Gram (−ve); agar well diffusion, 15 mg/mL; mean ± SD
E. coli (ATCC: 3008) [8] = assay: Agar well diffusion, inhibition zone; type: cell-based, Escherichia coli; conditions: for diameter of the inhibition zone: E. coli (ATCC: 3008), Gram (−ve), agar well diffusion, 15 mg/mL, mean ± SD; for zone of inhibition at 15000 µg/mL: Escherichia coli, read-out: diameter of the inhibition zone
[9] = test system: K. pneumonia (ATCC: 4415); assay: Agar well diffusion, inhibition zone; type: cell-based, Klebsiella pneumonia; conditions: for zone of inhibition at 15000 µg/mL: Klebsiella pneumoniae, read-out: diameter of the inhibition zone, K. pneumonia (ATCC: 4415), Gram (−ve), 15 mg/mL, mean ± SD; for diameter of the inhibition zone: K. pneumonia (ATCC: 4415), Gram (−ve), 15 mg/mL, mean ± SD
human DHFR = target: T1, human DHFR (Homo sapiens, UniProt P00374); assay: DHFR inhibitor screening kit; type: biochemical; conditions: for inhibition at 0.01 µg/mL / inhibition at 0.1 µg/mL / inhibition at 1 µg/mL / inhibition at 10 µg/mL: read-out: Inhibition of DHFR enzyme
T1 sequence (P00374 1-187): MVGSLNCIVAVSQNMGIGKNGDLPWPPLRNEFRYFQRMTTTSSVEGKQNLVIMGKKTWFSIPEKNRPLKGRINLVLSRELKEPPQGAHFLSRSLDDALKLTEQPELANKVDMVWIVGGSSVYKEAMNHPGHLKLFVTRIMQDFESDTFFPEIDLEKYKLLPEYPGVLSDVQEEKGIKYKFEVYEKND

[10] = test system: HFB4 human dermal fibroblast cell line; assay: MTT cytotoxicity assay; type: cell-based; conditions: 48 h
E. coli (ATCC: 3008) [11] = assay: MIC, twofold serial dilution; type: cell-based; conditions: Escherichia coli, 24 h
[12] = test system: K. pneumonia (ATCC: 4415); assay: MIC, twofold serial dilution; type: cell-based; conditions: Klebsiella pneumoniae, 24 h, read after 24 h

Structure (SMILES) | zone of inhibition at 15000 µg/mL (S. mutans (ATCC: 25175) [2]) | zone of inhibition at 15000 µg/mL (S. aureus (ATCC: 6538) [4]) | diameter of the inhibition zone [5] | diameter of the inhibition zone [7] | diameter of the inhibition zone (E. coli (ATCC: 3008) [8]) | zone of inhibition at 15000 µg/mL [9] | diameter of the inhibition zone (S. mutans (ATCC: 25175) [2]) | diameter of the inhibition zone (S. aureus (ATCC: 6538) [4]) | zone of inhibition at 15000 µg/mL (E. coli (ATCC: 3008) [8]) | diameter of the inhibition zone [9] | also measured
CC1(C)S[C@@H]2[C@H](NC(=O)[C@H](N)c3ccccc3)C(=O)N2[C@H]1C(=O)O [Ampicillin, reference compound] | 22 ± 0.5 mm | 32 ± 0.5 mm |  |  |  |  |  |  |  |  | MIC (S. aureus (ATCC: 6538) [1]): 62.5 µg/mL (≈ 179 µM); MIC (S. mutans (ATCC: 25175) [3]): 62.5 µg/mL (≈ 179 µM)
C[C@@H]1[C@H](O)[C@@H](C)/C=C/C=C/CC/C=C/C=C/C=C/C=C/C(O[C@H]2O[C@H](C)[C@@H](O)[C@H](N)[C@@H]2O)CC2O[C@](O)(CC(O)C(O)CCC(O)CC(O)CC(O)CC(=O)O[C@H]1C)CC(O)C2C(=O)O (stereo partly drawn) [Nystatin, reference compound] |  |  | 28.0 ± 0.1 mm |  |  |  |  |  |  |  | MIC [6]: 31.25 µg/mL (≈ 33.7 µM)
O=C(Cc1nc2ccccc2s1)NNS(=O)(=O)c1ccccc1 [compound 3a, N′-(2-(Benzo[d]thiazol-2-yl)acetyl)benzenesulfonohydrazide] |  |  | − | − | − ^a | 20 ± 3 mm | − | − |  |  | 
Cc1ccc(S(=O)(=O)NNC(=O)Cc2nc3ccccc3s2)cc1 [compound 3b, N′-(2-(Benzo[d]thiazol-2-yl)acetyl)-4-methylbenzenesulfonohydrazide] | 10.6 ± 0.5 mm | 17.6 ± 2.5 mm | − | − |  | 32 ± 2 mm |  |  | 17.3 ± 2.5 mm |  | MIC (S. aureus (ATCC: 6538) [1]): 1000 µg/mL (≈ 2770 µM); IC50 (human DHFR): 1.02 µM; inhibition at 0.01 µg/mL (human DHFR): 17.9%; inhibition at 0.1 µg/mL (human DHFR): 33.4%; inhibition at 1 µg/mL (human DHFR): 60.9%; inhibition at 10 µg/mL (human DHFR): 81.5%; IC50 [10]: 165 ± 3.04 µg/mL (≈ 456 µM); MIC (E. coli (ATCC: 3008) [11]): 250 µg/mL (≈ 692 µM); MIC (S. mutans (ATCC: 25175) [3]): 1000 µg/mL (≈ 2770 µM)
CSc1c(C#N)c(O)n(NS(=O)(=O)c2ccccc2)c(=O)c1-c1nc2ccccc2s1 [compound 5c, N-(3-(Benzo[d]thiazol-2-yl)-5-cyano-6-hydroxy-4-(methylthio)-2-oxopyridin-1(2H)-yl)benzenesulfonamide] |  | 17.6 ± 1.5 mm | − | − |  | 27.3 ± 1.5 mm | − |  | 23.3 ± 1.5 mm |  | 
CSc1c(C#N)c(O)n(NS(=O)(=O)c2ccc(C)cc2)c(=O)c1-c1nc2ccccc2s1 [compound 5d, N-(3-(Benzo[d]thiazol-2-yl)-5-cyano-6-hydroxy-4-(methylthio)-2-oxopyridin-1(2H)-yl)-4-methylbenzenesulfonamide] |  | 17.5 ± 2 mm | − | − | − | 18.2 ± 0.5 mm | − |  |  |  | 
CSc1c(C(=O)Nc2ccccc2)c(N)n(NS(=O)(=O)c2ccccc2)c(=O)c1-c1nc2ccccc2s1 [compound 9a, 2-Amino-5-(benzo[d]thiazol-2-yl)-4-(methylthio)-6-oxo-N-phenyl-1-(phenylsulfonamido)-1,6-dihydropyridine-3-carboxamide] |  | 31 ± 1 mm | − | − | − |  | − | 31 ± 1.0 mm |  | − | 
CSc1c(C(=O)Nc2ccccc2)c(N)n(NS(=O)(=O)c2ccc(C)cc2)c(=O)c1-c1nc2ccccc2s1 [compound 9b, 2-Amino-5-(benzo[d]thiazol-2-yl)-1-(4-methylphenylsulfonamido)-4-(methylthio)-6-oxo-N-phenyl-1,6-dihydropyridine-3-carboxamide] |  | 27.1 ± 0.2 mm | − | − | − |  | − |  |  | − | 
CSc1c(C(=O)Nc2ccc(C)cc2)c(N)n(NS(=O)(=O)c2ccccc2)c(=O)c1-c1nc2ccccc2s1 [compound 9c, 2-Amino-5-(benzo[d]thiazol-2-yl)-4-(methylthio)-6-oxo-1-(phenylsulfonamido)-N-(p-tolyl)-1,6-dihydropyridine-3-carboxamide] | 20.2 ± 1 mm |  | − | − |  | 29 mm |  | − | 14.8 ± 0.2 mm | 29.2 ± 0.3 mm | 
CSc1c(C(=O)Nc2ccc(C)cc2)c(N)n(NS(=O)(=O)c2ccc(C)cc2)c(=O)c1-c1nc2ccccc2s1 [compound 9d, 2-Amino-5-(benzo[d]thiazol-2-yl)-1-(4-methylphenylsulfonamido)-4-(methylthio)-6-oxo-N-(p-tolyl)-1,6-dihydropyridine-3-carboxamide] | 8.8 ± 1 mm | 26.8 ± 1.5 mm | 28.0 ± 0.7 mm | − | − |  |  |  |  | − | zone of inhibition at 15000 µg/mL ([5]; Candida albicans, read-out: diameter of the inhibition zone, C. albicans (ATCC: 10231), fungi, 15 mg/mL, mean ± SD): 21 to 28 mm
COc1ccc(NC(=O)c2c(SC)c(-c3nc4ccccc4s3)c(=O)n(NS(=O)(=O)c3ccccc3)c2N)cc1 [compound 9e, 2-Amino-5-(benzo[d]thiazol-2-yl)-N-(4-methoxyphenyl)-4-(methylthio)-6-oxo-1-(phenylsulfonamido)-1,6-dihydropyridine-3-carboxamide] |  | 19.6 ± 1 mm | − | − | − |  | − |  |  | no activity and − | 
COc1ccc(NC(=O)c2c(SC)c(-c3nc4ccccc4s3)c(=O)n(NS(=O)(=O)c3ccc(C)cc3)c2N)cc1 [compound 9f, 2-Amino-5-(benzo[d]thiazol-2-yl)-N-(4-methoxyphenyl)-1-(4-methylphenylsulfonamido)-4-(methylthio)-6-oxo-1,6-dihydropyridine-3-carboxamide] |  |  | − | − | − | 29 mm | − | − |  | 29.6 ± 1.5 mm | 
Cc1ccc(S(=O)(=O)Nn2c(N)c3c(N)n[nH]c3c(-c3nc4ccccc4s3)c2=O)cc1 [compound 11b, N-(3,4-Diamino-7-(benzo[d]thiazol-2-yl)-6-oxo-1H-pyrazolo[4,3-c]pyridin-5(6H)-yl)-4-methylbenzenesulfonamide] | 21 ± 1 mm | 25.2 ± 1 mm | no potency and − | − | 26.0 ± 1.0 mm | 17.5 ± 0.5 mm |  |  | 26 ± 1 mm |  | MIC [12]: 125 µg/mL (≈ 267 µM); MIC (S. aureus (ATCC: 6538) [1]): 500 µg/mL (≈ 1070 µM); IC50 (human DHFR): 11.8 µM; inhibition at 0.01 µg/mL (human DHFR): 12.4%; inhibition at 0.1 µg/mL (human DHFR): 19.3%; inhibition at 1 µg/mL (human DHFR): 31.2%; inhibition at 10 µg/mL (human DHFR): 60.1%; IC50 [10]: 295 ± 19.1 µg/mL (≈ 631 µM); MIC (E. coli (ATCC: 3008) [11]): 31.2 µg/mL (≈ 66.8 µM); MIC (S. mutans (ATCC: 25175) [3]): 500 µg/mL (≈ 1070 µM)
